Results on 1 molecule are retold here after ChEMBL document CHEMBL3832043, “DailyMed|setid=ef14e332-51ac-ea97-3542-9bc92557dbed | PROPOFOL- propofol injection, emulsion|APP Pharmaceuticals, LLC”.

Series [1] in a line: Pharmacokinetic parameters of Propofol following intravenous administration in subjects. To be noted: human, in vivo.
The nature of series [2]: Pharmacokinetic parameters for Propofol following multiple intravenous administration in subjects. To be noted: human, in vivo.

Turning to `CC(C)c1cccc(C(C)C)c1O` [PROPOFOL], the clearance – broadly, a measure of how efficiently the substance is removed, as volume per time – in series [1] is 23 to 50 mL/min/kg. Also, the half-life (usually the time in which the quantity being followed falls by half) in series [2] lay within 1440 to 4320 min.
